Measured values reported in ChEMBL document CHEMBL1914367, “Formation, recognition and bioactivities of a novel G-quadruplex in the STAT3 gene” (Bioorg Med Chem Lett, 2011).
Calls of active or inactive are those of the source. The rule behind the calls is not given here.

Experiments:
Nucleic Acid [1] = test: Binding affinity to STAT3 G-quadruplex in rat cardiomyocytes assessed as down regulation of STAT3 gene expression at 10 uM after 48 hrs by RT-PCR analysis; type: cell-based
Nucleic Acid [2] = test: Binding affinity to STAT3 G-quadruplex in 3'-flanking region 5'-GGGCTGGGGATGGGGAGGGGG-3' assessed as intensity ratio of all complex ions to the sum of all G-quadruplex and complex ions at 20 uM by ESI mass spectroscopy relative to control; type: nucleic-acid assay
Nucleic Acid [3] = test: Binding affinity to STAT3 G-quadruplex in rat cardiomyocytes assessed as down regulation of STAT3 protein expression at 10 uM after 48 hrs by Western blot analysis; type: cell-based
Nucleic Acid [4] = test: Down regulation of human STAT3 gene expression in human HEK293 cells cloned with FRQ vector harboring intact G-quadruplex at 2 to 10 uM after 24 hrs by luciferase reporter gene assay; type: cell-based
HEK293 [5] = test: Down regulation of human STAT3 gene expression in human HEK293 cells cloned with DelQ vector harboring G-quadruplex G-rich sequence deletion at 2 to 10 uM after 24 hrs by luciferase reporter gene assay; type: functional, cell-based
HEK293 [6] = test: Down regulation of human STAT3 gene expression in human HEK293 cells cloned with MutQ vector harboring G-quadruplex GGG to GTG substitution mutation at 2 to 10 uM after 24 hrs by luciferase reporter gene assay; type: functional, cell-based
Nucleic Acid [7] = test: Binding affinity to STAT3 G-quadruplex in 3'-flanking region 5'-GGGCTGGGGATGGGGAGGGGG-3' assessed as melting temperature at 20 uM by UV-Vis spectrophotometry (reference value: 58 degC); type: nucleic-acid assay
Nucleic Acid [8] = test: Binding affinity to STAT3 G-quadruplex in 3'-flanking region 5'-GGGCTGGGGATGGGGAGGGGG-3' assessed as melting temperature at 40 uM by UV-Vis spectrophotometry (reference value: 58 degC); type: nucleic-acid assay
Nucleic Acid [9] = test: Binding affinity to human VEGF G-quadruplex 5'-GGGGCGGGCCGGGGGCGGGG-3' assessed as the intensity ratio of all complex ions to the sum of all G-quadruplex and complex ions at 20 uM by ESI mass spectroscopy relative to control; type: nucleic-acid assay
Nucleic Acid [10] = test: Binding affinity to G-telomeric quadruplex 5'-GGGTTAGGGTTAGGGTTAGGG-3' assessed as the intensity ratio of all complex ions to the sum of all G-quadruplex and complex ions at 20 uM by ESI mass spectroscopy relative to control; type: nucleic-acid assay
Nucleic Acid [11] = test: Binding affinity to STAT3 G-quadruplex in 3'-flanking region 5'-GGGCTGGGGATGGGGAGGGGG-3' assessed as melting temperature at 10 uM by UV-Vis spectrophotometry (reference value: 58 degC); type: nucleic-acid assay

Ratio (Nucleic Acid [2]) | Tm (Nucleic Acid [7]) [°C] | Tm (Nucleic Acid [8]) [°C] | Ratio (Nucleic Acid [9]) | Ratio (Nucleic Acid [10]) | Tm (Nucleic Acid [11]) [°C] | SMILES | Activity (Nucleic Acid [1]) | Activity (Nucleic Acid [3]) | inhibition (Nucleic Acid [4]) | inhibition (HEK293 [5]) | inhibition (HEK293 [6])
0.81 | 62 | 65 | 0.26 | 0.47 | 59 | COc1ccc2cc1Oc1ccc(cc1)C[C@H]1c3c(cc4c(c3Oc3cc5c(cc3OC)CCN(C)[C@@H]5C2)OCO4)CCN1C | Active | Active | Active | inactive | inactive
0.34 | – | – | – | – | – | COc1cc2c(cc1OC)-c1c(C)c3ccc(OC)c(OC)c3c[n+]1CC2 | – | – | – | – | –

SMILES | Ratio (Nucleic Acid [2]) | Tm (Nucleic Acid [7]) [°C] | Tm (Nucleic Acid [8]) [°C] | Ratio (Nucleic Acid [9]) | Ratio (Nucleic Acid [10]) | Tm (Nucleic Acid [11]) [°C] | Activity (Nucleic Acid [1]) | Activity (Nucleic Acid [3]) | inhibition (Nucleic Acid [4]) | inhibition (HEK293 [5]) | inhibition (HEK293 [6])
C[n+]1ccc(-c2c3nc(c(-c4cc[n+](C)cc4)c4ccc([nH]4)c(-c4cc[n+](C)cc4)c4ccc([nH]4)c(-c4cc[n+](C)cc4)c4nc2C=C4)C=C3)cc1 | 0.53 | – | – | – | – | – | Active | Active | Active | inactive | inactive
